In a melting point compilation (Tetko et al.):

melting point [°C]	SMILES
64 to 66	Cc1ccccc1C1CC1C(=O)O (centres undefined)
122 to 124	O=C(O)CS(=O)(=O)c1ccc(Cl)cc1
87 to 90	Cc1nc(CSc2ccc(C(=O)O)cc2)cs1
81 to 83	O=C(c1ccc2c(c1)CCO2)c1cc(Cl)ccc1Cl
127 to 129	CCc1ccc(N)c(C(=O)O)c1
142 to 144	O=C(O)Cc1csc(-c2c(Cl)cccc2Cl)n1
141 to 143	O=C(O)CN1C(=O)CCCc2ccccc21
157 to 159	COc1ccc(C(CNC(=O)CCl)c2c[nH]c3ccccc23)cc1 (centres undefined)
139 to 141	NC(=O)CNc1ccccc1
133 to 135	Nc1nc(Cc2ccccc2)ns1
139 to 141	O=C(NCC(F)(F)F)c1ccc(S(=O)(=O)Cl)cc1
142 to 144	O=C(O)c1cccc2c1CCCN2
159 to 161	CC(C)C(NS(=O)(=O)c1ccccc1F)C(=O)O (centres undefined)
139 to 141	COCc1nnc(-c2cccc(C(=O)O)c2)o1
71 to 73	Clc1ccc(Cn2cc(Br)cn2)cc1
194 to 196	O=C(Nc1ccn[nH]1)OCc1ccccc1
94 to 96	COc1ccccc1CNC(=O)CCl
178 to 180	COc1ccc(C)cc1NC(=O)c1cc2ccccc2cc1O
256 to 258	O=C(O)Cn1c(-c2cscn2)nc2ccccc21
118 to 120	Nc1ccc(F)c(NC(=O)c2ccsc2)c1
77 to 79	Nc1ccc(Sc2ccccc2Cl)cc1
32 to 34	CCCCCCOc1ccc(CO)cc1
263 to 265	Cc1nc(-c2cccnc2)[nH]c(=O)c1CC(=O)O
169 to 171	NNc1cc(C(F)(F)F)nc(-c2ccccn2)n1
129 to 131	NC(=O)CSc1ccccc1NC(=O)CCl
347 to 349	Cc1nn(-c2ccc(F)cc2)c2ncc(C(=O)O)cc12

melting point [°C]	SMILES
236 to 238	Cc1nc(Cc2ccccc2)sc1C(=O)O
72 to 81	O=C(CN1CCNCC1)Nc1ccc(F)cc1
150 to 152	NC(=O)N1CCN(c2ccccc2F)CC1
31 to 33	O=C(CCCc1ccccc1)Cc1ccc(Cl)cc1
130 to 132	Nc1cccc(I)c1C(=O)O
88 to 90	N#Cc1ccccc1CN1CCCC1C(N)=O (centres undefined)
112 to 114	Clc1ccc2cccc(Br)c2n1
253 to 255	O=C(O)c1n[nH]c2ccc([N+](=O)[O-])cc12
38 to 40	COC(=O)c1cc(N)ccc1C
211 to 213	Oc1cccc(-c2nnco2)c1
68 to 70	Cc1ccc(N)c(OCc2ccccc2)c1
64 to 66	O=Cc1cccc(OC(F)(F)C(=O)O)c1
68 to 70	C=CC(=O)Nc1ccccc1OC
55 to 57	CCOC(=O)c1ccc(C(C)=O)cc1
120 to 122	Nc1ccn(Cc2cccc3cccnc23)n1
217 to 219	Nc1ccc(-n2cc[nH]c2=O)cc1
139 to 141	O=C(O)Cc1c[nH]c2ccc(F)cc12
149 to 151	O=C(O)C1CC(=O)N(c2ccc(Cl)cc2)C1 (centres undefined)
102 to 104	O=C1OC(CBr)CN1c1ccccc1 (centres undefined)
136 to 138	CC(C)c1sc(NC(=O)CCl)nc1-c1ccccc1
78 to 80	OC(c1cccc(F)c1)c1ccccn1 (centres undefined)
109 to 112	NNC(=O)COc1ccccc1F
150 to 152	COC(=O)C(=O)CC(=O)c1cc(Cl)ccc1Cl
99 to 101	COC(=O)CCNC(=O)c1ccc(N)cc1
105 to 107	Nc1ncc(Cc2cccc(Br)c2)s1
52 to 54	Clc1cnc(Cl)c(-c2ccccc2)n1

Second part, the compound before the results:

SMILES	melting point [°C]
Cc1c(C(=O)O)sc2cccc(F)c12	230 to 232
Cc1ccnc(NC2CCCCC2)c1	75 to 77
NS(=O)(=O)c1cc(Cl)ccc1Cl	179 to 181
Cc1nc(-c2ccc(Cl)cc2)sc1C(C)N (centres undefined)	42 to 44
Nc1cc2c(cc1[N+](=O)[O-])OCC(=O)N2	323 to 325
O=Cc1sc(N2CCCCC2)nc1Cl	89 to 91
CCOC(=O)c1ccc(S(=O)(=O)N2CCC(C(=O)O)CC2)cc1	219 to 221
CCC1NC(=O)NC1=O (centres undefined)	115 to 119
CC(=O)c1cccc(N2C(=O)C=CC2=O)c1	104 to 106
Nc1c(Cl)cc(Cl)c2c1N=S=N2	176 to 178
Cn1c(Cl)cnc1CO	110 to 112
O=C(O)C1CCN(c2ccc(F)c(F)c2)C1=O (centres undefined)	154 to 156
CC(C)Cn1cc(C(=O)O)c2ccccc21	151 to 153
CNc1nc(CC(C)=O)ns1	298 to 300
Brc1nnc(Br)s1	104 to 106
CC(C)N1N=C(C(=O)O)CCC1=O	131 to 133
O=C(CCl)c1ccc[nH]1	114 to 116
CC1CNCC(C)N1C(=O)OC(C)(C)C (centres undefined)	61 to 63
O=C(O)c1cc(S(=O)(=O)N2CCCCC2)ccc1Cl	214 to 216
CCOC(=O)c1sc(O)nc1C	171 to 173
CC(C)(C)OC(=O)N1CCc2n[nH]c(=O)cc2C1	187 to 189
CC(NC(=O)CCl)C1CC1 (centres undefined)	50 to 52
NC(=O)NC(CCC(=O)O)C(=O)O (centres undefined)	161 to 163
CC1C=CC2C(=O)N(CC(F)(F)F)C(=O)C2C1C(=O)O (centres undefined)	166 to 168
[N-]=[N+]=NC(C(N)=O)c1ccc(F)cc1 (centres undefined)	127 to 129
CCNC1CCc2[nH]c3ccc(Cl)cc3c2C1 (centres undefined)	174 to 176

SMILES	melting point [°C]
Nc1c(Br)cc(Cl)cc1C(=O)O	232 to 234
Brc1csc(Br)n1	80 to 84
Nc1cc(-c2ccc([N+](=O)[O-])cc2)no1	195 to 197
Cn1cc(-c2ccc(Cl)nn2)cn1	188 to 190
Cc1cc(C)nc(-n2cc(C(=O)O)c(C)n2)n1	287 to 289
CC(=O)c1nnn(-c2cccc(Cl)c2)c1C	82 to 84
Cn1cnnc1-c1cncc(O)c1	266 to 268
COc1ccc(S(N)(=O)=O)cc1C	137 to 139
Cc1cc(N)nc(S)n1	295 to 297
Cc1cc(=O)[nH]cc1C(=O)O	306 to 308
CC1(C(=O)O)CCOCC1	62 to 64
O=C1Nc2ccc(S(=O)(=O)Cl)cc2C1(Cl)Cl	134 to 136
Nc1cc(S(=O)(=O)NC2CC2)c(Cl)cc1F	120 to 122
Nc1cc(C(F)(F)F)ccc1-n1cncn1	119 to 121
COCCCS(N)(=O)=O	41 to 43
COC(=O)NC(=O)CCl	147 to 151
COc1cc2nc(C)sc2cc1OC	70 to 72
O=C(O)c1cnsn1	167 to 169
Cc1c(Cl)cccc1N1C(=O)C=CC1=O	68 to 70
O=C(O)CCC(=O)c1ccc(F)c(F)c1	84 to 86
O=C(CCl)N1CCN(S(=O)(=O)c2ccc([N+](=O)[O-])cc2)CC1	187 to 189
NC(=O)C1CCC(C(=O)O)CC1 (centres undefined)	205 to 207
O=S(=O)(Cl)c1ccc2c(c1)COC2	98 to 100
O=C(O)c1cc2c(s1)CCCC2	179 to 181
Cn1cccc1C(=O)NC1CCNCC1	195 to 197
CNCC1CCN(c2ccncc2)CC1	65 to 67
